Where only a bound is given, the exact number is not on record here.

The results in this text go back to patent publication US20110280940A1, “Di-Vanilloyl And Tri-Vanilloyl Derivatives For Use In Anti-Cancer Therapy” (priority 2008, published 2011).

One assay has as its system GSK-3. The experiment in a line: Kinase activity assay, GSK3. In kind it is biochemical, porcine. The settings on record: 10 μM, 1% DMSO, 15 μM ATP; residual activity. The procedure: Buffer A: 10 mM MgCl2, 1 mM EGTA, 1 mM DTT, 25 mM Tris-HCl pH 7.5, 50 μg heparin/ml. Buffer C: 60 mM β-glycerophosphate, 15 mM p-nitrophenylphosphate, 25 mM Mops (pH 7.2), 5 mM EGTA, 15 mM MgCl2, 1 mM DTT, 1 mM sodium vanadate, 1 mM phenyl phosphate.
Kinase activities were assayed in Buffer A or C, at 30° C., at a final ATP concentration of 15 μM. Blank values were subtracted and activities expressed in % of the maximal activity, i.e. in the absence of inhibitors. Controls were performed with appropriate dilutions of DMSO.
GSK-3 (porcine brain, native) was assayed, as described for CDK1 but in Buffer A and using a GSK-3 specific substrate (GS-1: […]pEDEEE) (Seq. ID NO 1) (pS stands for phosphorylated serine) (Primot et al., 2000, Protein Expr. & Purif. 20 (3), 394-404). GS-1 was synthesized by Millegen (Labege, France).

The subject of the next assay is 250 protein kinases. The experiment in a line: Kinase inhibition profile of DLT11 at 20 μM (33 PanQinase). In kind it is biochemical, human. The settings on record: out of 250 kinases. The procedure: The kinase inhibition profile of DLT11 at 20 μM was determined using 250 protein kinases. Residual activity values were measured by testing each compound at one concentration in duplicate in each kinase assay. A radiometric protein kinase assay (33 PanQinase®Activity Assay) was used for measuring the kinase activity of 250 protein kinases. All kinase assays were performed in 96-well flashPlates™ from Perkin Elmer (Boston, Mass., USA) in a 50 μl reaction volume. The reaction cocktail was pipetted in 4 steps in the following order: • 10 μl of non-radioactive ATP solution (in H2O) • 25 μl of assay buffer/[γ-33P]-ATP mixture • 5 μl of test sample in 10% DMSO • 10 μl of enzyme/substrate mixture […]
Incorporation of ^33Pi (counting of “cpm”) was determined with a microplate scintillation counter (Microbeta, Wallac).
For each kinase, the median value of the cpm of three wells with complete reaction cocktails, but without kinase, was defined as “low control” (n=3). This value reflects unspecific binding of radioactivity to the plate in the absence of protein kinase but in the presence of the substrate. […] The residual activity (in %) for each compound well was calculated by using the following formula: Res. Activity (%)=100×[(cpm of compound−low control)/(high control−low control)] […]

For assay [1], the system named is PC-3 prostate cancer cells. The experiment in a line: MTT colorimetric assay, overall cell growth, PC-3. The note with it: Homo sapiens, 72 hours of incubation, read-out: In Vitro IC50 Growth Inhibitory Values, PC-3. It counts as cell-based, human. In short, it runs like this:
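Growth is measured as remaining living cells relative to untreated controls after 72 h at 37 °C with compound at 10^-8 to 10^-4 M. Readout is MTT formazan absorbance at 570 nm.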

Take `COc1cc(C(=O)OCCOC(=O)c2ccc(O)c(OC)c2)ccc1O` [DLT1, Ethane-1,2-diyl bis-(4-hydroxy-3-methoxybenzoate)]: the “% ENZYMATIC ACTIVITY, GSK3” value in the assay with GSK-3 is on record as 77%.

Regarding `COc1cc(C(=O)OCCCCCCOC(=O)c2ccc(O)c(OC)c2)ccc1O` [DLT11, Hexane-1,6-diyl bis-(4-hydroxy-3-methoxybenzoate)], the “number of kinases that had their activity inhibited” value in the assay with 250 protein kinases is 19. On to `COc1cc(C(=O)O)ccc1O` [vanillic acid, reference compound], for which the IC50 in assay [1] was greater than 1000 µM.
